For data set [1], the system named is S. epidermidis cra4029 (SE 02). In kind it is cell-based. The text has this:
(§1) The experimental scheme reported in Figure 6 helped to simplify and optimize the in vitro testing of the antibacterial activity of the different AMPs. The initial transparent microtiter plate for the determination of the minimum inhibitory concentration (MIC) by optical density (OD) measurement was conveniently used as a starting point not only for the alterative determination of the MIC by luminescence but also for the minimum bactericidal concentration (MBC) and for the minimum biofilm inhibitory concentration (MBIC), as explained below. For every test peptide, at least three independent experiments were performed on each bacterial strain per test condition (100% MHB and 20% MHB). The sole exception to this rule was when MIC values were on rare occasions found to be greater than 500 µg/mL. Under these circumstances, two consecutive experiments were performed to confirm the results. In this case, the antibacterial activity was considered insignificant and the third experiment was generally considered unnecessary.
(§2) The antibacterial properties of the test AMPs were assayed under two distinct conditions of bacterial culture: (i) with bacteria cultured in undiluted Mueller–Hinton II Broth (MHB II) and (ii) with bacteria cultured in diluted MHB II as earlier described in Campoccia et al.. Briefly, a few colonies of each bacterial strain, taken from overnight cultures on Mueller–Hinton Agar plates (MHA, PO50007A, ThermoScientific, Thermo Fisher Scientific, Segrate, Italy), were resuspended in Mueller–Hinton II Broth (MHB II, 24107, Liofilchem, Roseto degli Abruzzi, Italy), either undiluted or at a 20% dilution in deionized water. The concentration of bacteria was adjusted to approximately 10^8 CFU/mL, as estimated by optical density reading at 625 nm, using a Hewlett Packard G1103A spectrophotometer (Waldbronn, Germany). The bacterial suspension was further diluted 1:100 in 100% or 20% MHB II.
(§3) Serial 1:2 dilutions of all the test peptides were prepared in sterile deionized water starting from a stock solution of 1 mg/mL. Microtiter plates (96-Well CytoOne® Plate, CC7672-7596, Starlab S.r.l., Milano, Italy) were prepared by adding a volume of 100 µL of inoculum to 100 µL of treatment. Each AMP dilution was assayed in triplicate; each microplate included triplicate wells for the blank (100 µL of sterile distilled water and 100 µL of sterile MHB II), and 3 to 6 wells for reference control of 100% growth (100 µL of sterile deionized water and 100 µL of MHB II inoculated with the bacterium). Positive controls were performed in triplicate wells with 100 µL of a 10 mg/mL gentamicin solution (G1272, Sigma Aldrich, Milan, Italy) and with 100 µL of a solution containing 10,000 units/mL of penicillin and 10,000 µg/mL of streptomycin (penicillin–streptomycin, 15140-122, Life Technologies, Monza, Italy).
(§4) After a 1-day incubation at 37 °C, the MIC was determined by two distinct methods: (1) optical density measurement and (2) bioluminescence reading. In the first case, the optical density of the microtiter plates was read directly at a wavelength of 600 nm and the MIC was estimated from the curves obtained by plotting the OD measurements. For the bioluminescence reading, after gentle resuspension, 100 µL of each treated culture was transferred to a new 96-well non-treated plate (236105/237105, Life Technologies, Monza, Italy) and the metabolic activity was determined by the kit Bac-Titer Glo Microbial Cell Viability Assay (G8231, Promega Italia S.r.l, Milan, Italy). Optical density and bioluminescence were read by a Modulus II multifunction plate reader (Turner BioSystems, Sunnyvale, CA, USA) or, alternatively, by an Infinite M Plex (Tecan Group Ltd., Männedorf, Switzerland). As earlier described in [24], in the case of luminescence, the MIC was identified from the curves of growth inhibition as the first concentration leading to a 1-log reduction in bacterial growth (i.e., 90% growth inhibition). […]

Data set [2] concerns E. faecalis cra4033 (EF 02). In kind it is cell-based.
Source text: as §1, §2, §3, §4

For data set [3] the following is noted: cited from earlier work. The source says: In 2021, aiming at identifying AMPs for a possible application in the prevention or treatment of prosthetic orthopedic infections, our group conducted an extensive systematic review on known short-chain AMPs, primarily based on the Database of Antimicrobial Activity and Structure of Peptides (DBAASP). The choice of considering short-chain peptides was dictated by the potentially lower allergenic risk offered by small peptides. The query included all monomeric AMPs with a length spanning from 7 to 13 amino acids. The research results provided a list of 415 entries, which were then extend ...

Where a SMILES comes first, the peptide text is derived from it.

Regarding `CC(C)[C@H](NC(=O)[C@H](Cc1c[nH]c2ccccc12)NC(=O)[C@H](Cc1ccccc1)NC(=O)[C@@H](NC(=O)[C@@H](NC(=O)[C@H](CCCCN)NC(=O)[C@@H](N)CCCCN)C(C)C)C(C)C)C(=O)N[C@@H](CCCCN)C(=O)N[C@@H](Cc1ccccc1)C(=O)N[C@@H](CCCCN)C(=O)O` [KSL-W] (H-KKVVFWVKFK-OH), the results for the MIC in data set [1] and in data set [2] were 0.49 to 0.98 µg/mL and 15.63 to 31.25 µg/mL, respectively. For the same molecule, the “stability to enzymic activity such as trypsin-catalyzed cleavage” value in data set [3] was “greater stability”.

Source of the values: PMC12386934, “Characteristics and Potential of KSL, KSL-W, and Dadapin-1 Antimicrobial Peptides for Preventing Infections of Orthopedic Prosthetic Devices: Identifying the Most Robust Candidate” (International Journal of Molecular Sciences, 2025).
